According to patent publication US11357766B2, “Compositions and methods for treating cancer” (Texas Tech University System, priority 2017, dated 2022):
pIC50: −log10 of the molar value. Read-outs that look alike come from different tables or passages of the source.

Assays:
[1] = system: orthotopically implanted PANC1-luc tumors; experiment: Orthotopic pancreatic tumor model; type: in vivo
Experimental: 1×10^6 PANC-1 luc cells were surgically implanted on the pancreas of 4-6 week old female athymic nude mice (n=5). Mice were treated with 10 mg/kg pimavanserin tartrate at day 17 till day 69. In FIG. 5A tumor luminescence was measured about twice a week and plotted against days. Values are plotted as mean±SEM. In FIG. 5B orthotopic tumors were aseptically removed and the tumor size was compared between control and pimavanserin tartrate treated group. […] The average weight of the mice is plotted against days. Values are plotted as mean±SEM.
Orthotopic pancreatic tumor model. 4-6 week old female athymic nude mice were used for orthotopic injection. All the experiments were performed under the strict compliance and regulations approved from Institutional Animal Care and Use Committee (IACUC), Texas Tech University Health Sciences Center, Amarillo, Tex. Mice were anesthetized by using isoflorane and a minor incision was made in the left abdomen. Stably transfected luciferase-expressing PANC1 (PANC1-luc) cells were orthotopically-implanted in the pancreas. 1×10^6 exponentially growing PANC1-luc cells in 20 μl PBS suspension were injected into the sub-capsular region on the pancreas using a 30-gauge sterile needle. The peritoneum and skin incisions were closed sequentially with absorbable suture. Buprenorphine was administered as a pain killer to mice at every 8 hours for 2 days. The growth of orthotopically-implanted tumors was monitored by measuring the luminescence by IVIS imaging (Calliper Life Sciences). In order to determine the basal luminescence value, mice were imaged on the same day after injecting luciferin (3 mg/mouse, i.p.). Mice were randomly divided into two groups (control and treatment) on day 17 after orthotopic injection of PANC1 luc cells. Control group received vehicle only whereas treatment group received 10 mg/kg pimavanserin tartrate by oral gavage everyday. The study was terminated at day 69 by humanely euthanizing the mice using CO2 overdose. The mice was dissected and representative mouse from control and treatment groups were imaged for luminescence. The pancreas from control and treatment groups were aseptically excised out and snap frozen for western blot analysis, whereas few pancreas were fixed in formalin for immunohistochemical and TUNEL analysis. Mice weight was monitored once a week.
Pimavanserin inhibits the growth of orthotopic pancreatic tumors. In order to further validate the in-vivo efficacy of pimavanserin, PANC-1 luc cells were orthotopically implanted into the pancreas of athymic nude mice. After 17 days of tumor implantation, mice were treated with 10 mg/kg pimavanserin by oral gavage everyday. […] After terminating the experiment, tumors were removed and weighed. The average weight of pimavanserin treated tumors was 46% less when compared to the tumors excised form control group (FIGS. 5B & 5D). Furthermore, the inventors also compared the luminescence between both the groups in isolated pancreas.

[2] = system: AsPC1, BxPC3, PANC1, MIAPaCa2, PO2, A375VR, SKMEL-28, HCT-116, 4T1, U87, U251, T98G, CT2A cells; experiment: Cytotoxicity studies, sulforhodamine B (SRB) assay; type: cell-based, human and murine; details: range over all the cell lines, read-out: IC50 (cell survival)
Experimental: FIGS. 1A to 1E show the effect of Pimavanserin tartrate suppresses the cell survival of pancreatic cancer cells. FIGS. 1F to 1G show the effect of pimavanserin tartrate suppresses the cell survival of melanoma cells. […] In the figures, the following cancer cells were evaluated: AsPC1 cells (FIG. 1A), BxPC3 cells (FIG. 1B), PANC1 cells (FIG. 1C), MIAPaCa2 cells (FIG. 1D), PO2 cells (FIG. 1E), A375VR cells (FIG. 1F), SKMEL-28 cells (FIG. 1G), HCT-116 cells (FIG. 1H), 4T1 cells (FIG. 1I), U87 cells (FIG. 1J), U251 cells (FIG. 1K), T98G vells (FIG. 1L), CT2A cells (FIG. 1M) which were treated with varied concentrations of pimavanserin tartrate for 24, 48 and 72 hours. Cell survival was determined by sulforhodamine B assay to estimate the IC50 values. The studies were repeated independently for three times with 4 replicates in each test. Values are plotted as mean±SD and the statistical significance level was considered as p<0.05.
Cell culture. Human pancreatic cancer cell lines AsPC1, BxPC3, PANC1, MIAPaCa2 cells, SKMEL-28 human melanoma cells, U87, U251, T98G human glioblastoma cells, and human colon cancer cell line HCT-116 were purchased from ATCC (Rockville, Md.). CT2A murine glioblastoma cells was a kind gift from Dr. Jill Edgar, Boston College, Boston. Cell lines were authenticated by STR analysis at TTUHSC core facilities (Lubbock, Tex.). […]
Cytotoxicity studies. The cytotoxic effects of pimavanserin tartrate in AsPC1, BxPC3, PANC1, MIAPaCa2, PO2, A375VR, SKMEL-28, HCT-116, 4T1, U87, U251, T98G, CT2A cells were determined by sulforhodamine B (SRB) assay. […] The optical density was measured using plate reader (Biotek instruments) as described by the present inventors (12).
Pimavanserin inhibited the proliferation of cancer cells, which included pancreatic cancer, melanoma, colon cancer, glioblastoma and breast cancer cells. The cytotoxic effects of pimavanserin were evaluated by SRB assay in the above mentioned cancer cells. […]

Which results are given for CC(C)COc1ccc(CNC(=O)N(Cc2ccc(F)cc2)C2CCN(C)CC2)cc1 [pimavanserin, N-(4-fluorophenylmethyl)-N-(1-methylpiperidin-4-yl)-N′-(4-(2-methylpropyloxy)phenylmethyl)carbamide]?
overall weight of the mice vs control (general signs of toxicity) ([1]; 10 mg/kg oral gavage everyday): did not reduce; suppression of orthotopic pancreatic tumor growth ([1]; 10 mg/kg oral gavage everyday): 75%; total flux (luminescence) at the end of the experiment ([1]; 10 mg/kg oral gavage everyday from day 17, day 69, control 1.45542×10^9 photons/second): 3.386×10^8 photons/sec; decrease of luminescence vs control group ([1]; 10 mg/kg oral gavage everyday, end of the experiment): 75%; average weight of tumors, less than control group ([1]; 10 mg/kg oral gavage everyday, excised tumors after terminating the experiment): 46%; pIC50 ([2]; 24 hours): 4.82 to 5.15; pIC50 ([2]; 48 hours): 5.10 to 5.52; pIC50 ([2]; 72 hours): 5.10 to 5.52
